Values of other authors, collected in patent US20250186525A1, “DECAFFEINATED YERBA MATE EXTRACT, ANTI-OBESITY COMPOSITION, DECAFFEINATION METHOD AND METHOD FOR THE PRODUCTION OF A YERBA MATE EXTRACT” (priority 2022, published 2025).

Tests used:
mice = conditions: isolated from a hot water extract of yerba mate
fat accumulation = conditions: cell and animal tests

**Q.** Which food intake (mice) does the source give for `O=C(/C=C/c1ccc(O)c(O)c1)O[C@@H]1CC(O)(C(=O)O)C[C@@H](OC(=O)/C=C/c2ccc(O)c(O)c2)C1O` (stereo partly shown) [3,5-dicaffeoylquinic acid] here?
**A.** significantly reduces

**Q.** For `Cn1c(=O)c2c(ncn2C)n(C)c1=O` [caffeine], which “inhibitory effect on fat accumulation” value (fat accumulation) is on record?
**A.** showed an inhibitory effect

**Q.** What about the “gene expression of fatty acid synthase” value (fatty acid synthase) of the same compound?
**A.** reduced

**Q.** With `O=C(/C=C/c1ccc(O)c(O)c1)O[C@@H]1C[C@](O)(C(=O)O)C[C@@H](O)[C@H]1O` [chlorogenic acid] as the compound, how does the food intake (mice) read?
**A.** significantly reduces
